In patent US9695155B2, “Herbicidal substituted pyrimidinyloxy benzene compounds” (E. I. DU PONT DE NEMOURS AND COMPANY, priority 2013, dated 2017):

How the values were obtained:
giant foxtail [1] = test: Test A preemergence; type: in vivo, Setaria faberii
Summary of the method: (§1)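 Visual 0–100 rating (100 = complete control) taken about 10 d post-treatment relative to untreated checks. Preemergence: directed soil spray on sown loam/sand pots. Postemergence: seedlings 2–10 cm, 1–2 leaf. Non-phytotoxic solvent formulation with surfactant.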

large (Lg) crabgrass = test: Test C preemergence; type: in vivo, Digitaria sanguinalis; conditions: for Crabgrass, Large plant response rating: preemergence
Summary of the method: (§2)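 Whole-plant greenhouse test with surfactant-containing solvent formulation, applied preemergence to sown loam–sand pots or postemergence to 2–18 cm plants. Scored by eye 13 to 15 days on, 0–100 scale.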

johnsongrass [2] = test: Test C preemergence; type: in vivo, Sorghum halepense; conditions: for Johnsongrass plant response rating: preemergence
Summary of the method: as §2

chickweed = test: Test C postemergence; type: in vivo, Stellaria media; conditions: for Chickweed plant response rating / Plant response rating, Chickweed: scale 0 to 100 (0 no effect, 100 complete control)
Summary of the method: as §2

waterhemp = test: Test C postemergence; type: in vivo, Amaranthus rudis; conditions: for Plant response rating, Waterhemp / Waterhemp plant response rating: scale 0 to 100 (0 no effect, 100 complete control)
Summary of the method: as §2

galium = test: Test C preemergence; type: in vivo, Galium aparine; conditions: for Galium plant response rating: preemergence
Summary of the method: as §2

johnsongrass [3] = test: Test C postemergence; type: in vivo, Sorghum halepense; conditions: for Johnsongrass plant response rating / Plant response rating, Johnsongrass: scale 0 to 100 (0 no effect, 100 complete control)
Summary of the method: as §2

giant foxtail [4] = test: Test C preemergence; type: in vivo, Setaria faberii; conditions: for Foxtail, Giant plant response rating: preemergence
Summary of the method: as §2

lambsquarters = test: Test C preemergence; type: in vivo, Chenopodium album; conditions: for Lambsquarters plant response rating: preemergence
Summary of the method: as §2

giant foxtail [5] = test: Test C postemergence; type: in vivo, Setaria faberii; conditions: for Foxtail, Giant plant response rating / Plant response rating, Foxtail, Giant: scale 0 to 100 (0 no effect, 100 complete control)
Summary of the method: as §2

soybean = test: Test C postemergence; type: in vivo, Glycine max; conditions: for Plant response rating, Soybean / Soybean plant response rating: scale 0 to 100 (0 no effect, 100 complete control)
Summary of the method: as §2

Italian ryegrass = test: Test A preemergence; type: in vivo, Lolium multiflorum
Summary of the method: as §1

yellow nutsedge [6] = test: Test C preemergence; type: in vivo, Cyperus esculentus; conditions: for Nutsedge, Yellow plant response rating: preemergence
Summary of the method: as §2

yellow nutsedge [7] = test: Test C postemergence; type: in vivo, Cyperus esculentus; conditions: for Nutsedge, Yellow plant response rating: 31 g ai/ha; for Nutsedge, Yellow plant response rating / Plant response rating, Nutsedge, Yellow: scale 0 to 100 (0 no effect, 100 complete control)
Summary of the method: as §2

[8] = 125 g ai/ha, 0 to 100 scale where 0 is no effect and 100 is complete control
[9] = 500 g ai/ha, 0 to 100 scale, 0 no effect, 100 complete control, approx. 10 days
[10] = 16 g ai/ha, scale 0 to 100 (0 no effect, 100 complete control)
[11] = 62 g ai/ha, scale 0 (no effect) to 100 (complete control)
[12] = 125 g ai/ha, scale 0 (no effect) to 100 (complete control)
[13] = Preemergence, 31 g ai/ha, scale 0 to 100, 0 no effect, 100 complete control
[14] = 16 g ai/ha, postemergence, visual rating, 13 to 15 days
[15] = Postemergence, 31 g ai/ha, 13 to 15 days
[16] = 1000 g ai/ha, 0 to 100 scale, 0 no effect, 100 complete control, approx. 10 days
[17] = 16 g ai/ha, postemergence, 0 is no effect, 100 is complete control
[18] = 31 g ai/ha, postemergence, visual rating, 13 to 15 days
[19] = 125 g ai/ha, postemergence, visual rating
[20] = postemergence, visual rating, 13 to 15 days
[21] = 500 g ai/ha, 0 to 100 scale where 0 is no effect and 100 is complete control
[22] = Postemergence, 62 g ai/ha, 13 to 15 days

CCOc1cn(-c2c(Br)cccc2Oc2ncc(Cl)cn2)nn1 [Compound 84]
Plant response rating, Foxtail, Giant (giant foxtail [1]; [8]): 70 | Foxtail, Giant plant response rating (giant foxtail [1]; [9]): 100 | Crabgrass, Large plant response rating (large (Lg) crabgrass; [10]): 45 | Crabgrass, Large plant response rating (large (Lg) crabgrass; [11]): 100 | Crabgrass, Large plant response rating (large (Lg) crabgrass; [12]): 100 | Plant response rating, Crabgrass, Large (large (Lg) crabgrass; [13]): 98 | Johnsongrass plant response rating (johnsongrass [2]; [10]): 0 | Johnsongrass plant response rating (johnsongrass [2]; [11]): 40 | Johnsongrass plant response rating (johnsongrass [2]; [12]): 85 | Plant response rating, Johnsongrass (johnsongrass [2]; [13]): 20 | Chickweed plant response rating (chickweed; [14]): 10 | Plant response rating (0 to 100), Chickweed (chickweed; 125 g ai/ha, postemergence): 50 | Plant response rating, Chickweed (chickweed; [15]): 10 | Plant response rating, Chickweed (chickweed; Postemergence, 62 g ai/ha): 40 | Plant response rating (0 to 100), Waterhemp (waterhemp; 125 g ai/ha, postemergence): 70 | Plant response rating, Waterhemp (waterhemp; [15]): 50 | Plant response rating, Waterhemp (waterhemp; Postemergence, 62 g ai/ha): 70 | Galium plant response rating (galium; [10]): 80 | Galium plant response rating (galium; [11]): 100 | Galium plant response rating (galium; [12]): 100 | Plant response rating, Galium (galium; [13]): 90 | Johnsongrass plant response rating (johnsongrass [3]; [14]): 0 | Plant response rating (0 to 100), Johnsongrass (johnsongrass [3]; 125 g ai/ha, postemergence): 0 | Plant response rating, Johnsongrass (johnsongrass [3]; [15]): 0 | Plant response rating, Johnsongrass (johnsongrass [3]; Postemergence, 62 g ai/ha): 0 | Foxtail, Giant plant response rating (giant foxtail [4]; [10]): 5 | Foxtail, Giant plant response rating (giant foxtail [4]; [11]): 98 | Foxtail, Giant plant response rating (giant foxtail [4]; [12]): 100 | Plant response rating, Foxtail, Giant (giant foxtail [4]; [13]): 55 | Lambsquarters plant response rating (lambsquarters; [10]): 75 | Lambsquarters plant response rating (lambsquarters; [11]): 100 | Lambsquarters plant response rating (lambsquarters; [12]): 100 | Plant response rating, Lambsquarters (lambsquarters; [13]): 85 | Foxtail, Giant plant response rating (giant foxtail [5]; [14]): 40 | Plant response rating (0 to 100), Foxtail, Giant (giant foxtail [5]; 125 g ai/ha, postemergence): 50 | Plant response rating, Foxtail, Giant (giant foxtail [5]; [15]): 5 | Plant response rating, Foxtail, Giant (giant foxtail [5]; Postemergence, 62 g ai/ha): 5 | Plant response rating (0 to 100), Soybean (soybean; 125 g ai/ha, postemergence): 90 | Plant response rating, Soybean (soybean; [15]): 55 | Plant response rating, Soybean (soybean; Postemergence, 62 g ai/ha): 90 | Plant response rating, Ryegrass, Italian (Italian ryegrass; [8]): 0 | Ryegrass, Italian plant response rating (Italian ryegrass; [9]): 20 | Nutsedge, Yellow plant response rating (yellow nutsedge [6]; [10]): 0 | Nutsedge, Yellow plant response rating (yellow nutsedge [6]; [11]): 5 | Nutsedge, Yellow plant response rating (yellow nutsedge [6]; [12]): 40 | Plant response rating, Nutsedge, Yellow (yellow nutsedge [6]; [13]): 0

Fc1cccc(Oc2ncc(Cl)cn2)c1-n1cc(C2CC2)nn1 [Compound 155]
Foxtail, Giant plant response rating (giant foxtail [1]; [16]): 100 | Plant response rating (0 to 100), Chickweed (chickweed; [17]): 90 | Chickweed plant response rating (chickweed; [18]): 80 | Plant response rating, Chickweed (chickweed; [19]): 90 | Plant response rating, Chickweed (chickweed; Postemergence, 62 g ai/ha): 75 | Plant response rating (0 to 100), Waterhemp (waterhemp; [17]): 45 | Waterhemp plant response rating (waterhemp; [18]): 65 | Plant response rating, Waterhemp (waterhemp; [19]): 98 | Plant response rating, Waterhemp (waterhemp; Postemergence, 62 g ai/ha): 80 | Plant response rating (0 to 100), Nutsedge, Yellow (yellow nutsedge [7]; [17]): 5 | Nutsedge, Yellow plant response rating (yellow nutsedge [7]; [20]): 5 | Plant response rating, Nutsedge, Yellow (yellow nutsedge [7]; [19]): 5 | Plant response rating, Nutsedge, Yellow (yellow nutsedge [7]; Postemergence, 62 g ai/ha): 5 | Plant response rating (0 to 100), Johnsongrass (johnsongrass [3]; [17]): 0 | Johnsongrass plant response rating (johnsongrass [3]; [18]): 0 | Plant response rating, Johnsongrass (johnsongrass [3]; [19]): 5 | Plant response rating, Johnsongrass (johnsongrass [3]; Postemergence, 62 g ai/ha): 5 | Plant response rating (0 to 100), Foxtail, Giant (giant foxtail [5]; [17]): 0 | Foxtail, Giant plant response rating (giant foxtail [5]; [18]): 5 | Plant response rating, Foxtail, Giant (giant foxtail [5]; [19]): 25 | Plant response rating, Foxtail, Giant (giant foxtail [5]; Postemergence, 62 g ai/ha): 15 | Plant response rating (0 to 100), Soybean (soybean; [17]): 5 | Soybean plant response rating (soybean; [18]): 70 | Plant response rating, Soybean (soybean; [19]): 80 | Plant response rating, Soybean (soybean; Postemergence, 62 g ai/ha): 75 | Ryegrass, Italian plant response rating (Italian ryegrass; [16]): 60

N#Cc1cccc(Oc2ncc(Cl)cn2)c1-n1cc(-n2ccc(C(F)(F)F)n2)cn1 [Compound 284]
Foxtail, Giant plant response rating (0 to 100 scale) (giant foxtail [1]; 125 g ai/ha): 90 | Foxtail, Giant plant response rating (giant foxtail [1]; [21]): 90 | Chickweed plant response rating (chickweed; [18]): 65 | Plant response rating, Chickweed (chickweed; [19]): 100 | Plant response rating (0 to 100), Chickweed (chickweed; 250 g ai/ha, postemergence): 100 | Plant response rating, Chickweed (chickweed; [22]): 100 | Waterhemp plant response rating (waterhemp; [18]): 85 | Plant response rating, Waterhemp (waterhemp; [19]): 98 | Plant response rating (0 to 100), Waterhemp (waterhemp; 250 g ai/ha, postemergence): 100 | Plant response rating, Waterhemp (waterhemp; [22]): 85 | Nutsedge, Yellow plant response rating (yellow nutsedge [7]; [20]): 0 | Plant response rating, Nutsedge, Yellow (yellow nutsedge [7]; [19]): 0 | Plant response rating (0 to 100), Nutsedge, Yellow (yellow nutsedge [7]; 250 g ai/ha, postemergence): 5 | Plant response rating, Nutsedge, Yellow (yellow nutsedge [7]; [22]): 0 | Johnsongrass plant response rating (johnsongrass [3]; [18]): 5 | Plant response rating, Johnsongrass (johnsongrass [3]; [19]): 20 | Plant response rating (0 to 100), Johnsongrass (johnsongrass [3]; 250 g ai/ha, postemergence): 20 | Plant response rating, Johnsongrass (johnsongrass [3]; [22]): 5 | Foxtail, Giant plant response rating (giant foxtail [5]; [18]): 10 | Plant response rating, Foxtail, Giant (giant foxtail [5]; [19]): 20 | Plant response rating (0 to 100), Foxtail, Giant (giant foxtail [5]; 250 g ai/ha, postemergence): 25 | Plant response rating, Foxtail, Giant (giant foxtail [5]; [22]): 10 | Soybean plant response rating (soybean; [18]): 35 | Plant response rating, Soybean (soybean; [19]): 85 | Plant response rating (0 to 100), Soybean (soybean; 250 g ai/ha, postemergence): 65 | Plant response rating, Soybean (soybean; [22]): 40 | Ryegrass, Italian plant response rating (0 to 100 scale) (Italian ryegrass; 125 g ai/ha): 20 | Ryegrass, Italian plant response rating (Italian ryegrass; [21]): 20
